# Measurements: patent publication US8796292B2, “Selective antibacterials for clostridium difficile infections” (GLSynthesis Inc., priority 2009, dated 2014)
# Read-outs that look alike come from different tables or passages of the source.
# Legend:
# Test in all cases: agar dilution MIC assay of anaerobic bacteria
# E. lentum = format: cell-based, Eubacterium lentum; conditions: Eggerthella lenta; E. lentum, Micromyx Number 1274, Table 1; read-out: MIC
# Method: (§1) Each compound was assayed against a panel of anaerobic bacteria in culture, consisting of Gram-positive organisms, such as Lactobacilli, Bifidobacteria, Clostridium spp., and Gram-negative bacteria, such as […] fragilis spp., according to guidelines of the Clinical and Laboratory Standards Institute (CLSI document M11-A7, CLSI, Wayne, Pa., 2007). […] One tenth mL of diluted bacteria containing 500-1000 colony-forming units (CFU) was plated and spread, and the plates incubated at 37° C. for 24-48 hours. MIC (minimum inhibitory concentration) is equivalent to the lowest concentration in μg/ml at which growth, i.e., colony formation, is not observed. […] Bacteria were assayed using a reference agar dilution method. Drug dilutions and drug-supplemented agar plates were prepared manually. The test organisms were maintained frozen at −80° C. The isolates were sub-cultured on Supplemented Brucella Agar (SBA) plates in a Bactron II anaerobic chamber and incubated for 48 hours at 35-36° C. in the Bactron II anaerobe chamber. Following inoculation, the drug-supplemented plates were incubated at 35° C. for 48 hours in the anaerobic environment (5% hydrogen, 5% carbon dioxide, 90% nitrogen) of the Bactron II. The MIC in μg/ml was read per Clinical and Laboratory Standards Institute guidelines.
# Bi. longum = format: cell-based, Bifidobacterium longum; conditions: Bifidobacterium longum; Bi. longum, Micromyx Number 3968, Table 1; read-out: MIC
# Method: as §1
# C. difficile = format: cell-based, Clostridium difficile
# Method: as §1
# L. casei = format: cell-based, Lactobacillus casei; conditions: Lacticaseibacillus casei, Micromyx Number 1722, Table 1
# Method: as §1
# Bi. brevi = format: cell-based, Bifidobacterium brevi; conditions: Bifidobacterium; Bi. brevi, Micromyx Number 3967, Table 1
# Method: as §1
# L. acidophilus = format: cell-based; conditions: Lactobacillus acidophilus, Micromyx Number 0681, Table 1
# Method: as §1
# Ba. fragilis = format: cell-based; conditions: Bacteroides fragilis, Micromyx Number 0123 (ATCC strain)
# Method: as §1
# [1] = Clostridioides difficile, C. difficile, Micromyx Number 1209, Table 1, read-out: MIC
# [2] = Clostridioides difficile, C. difficile, Micromyx Number 3579, Table 1, read-out: MIC
# [3] = Clostridioides difficile, C. difficile, Micromyx Number 3580, Table 1, read-out: MIC
# [4] = Clostridioides difficile, C. difficile, Micromyx Number 3581, Table 1, read-out: MIC
# [5] = Clostridioides difficile, C. difficile, Micromyx Number 3582, Table 1, read-out: MIC
# [6] = Clostridioides difficile, C. difficile, Micromyx Number 3584, Table 1, read-out: MIC
# [7] = Clostridioides difficile, C. difficile, Micromyx Number 3585, Table 1, read-out: MIC
# [8] = Clostridioides difficile, C. difficile, Micromyx Number 3586, Table 1, read-out: MIC
# [9] = Clostridioides difficile, C. difficile, Micromyx Number 3587, Table 1, read-out: MIC
# [10] = Clostridioides difficile, C. difficile, Micromyx Number 3588, Table 1, read-out: MIC
# [11] = Clostridioides difficile, C. difficile, Micromyx Number 3589, Table 1, read-out: MIC
# [12] = Clostridioides difficile, C. difficile, Micromyx Number 3590, Table 1, read-out: MIC
# [13] = Clostridioides difficile, C. difficile, Micromyx Number 3591, Table 1, read-out: MIC
# [14] = Clostridioides difficile, C. difficile, Micromyx Number 3593, Table 1, read-out: MIC
# [15] = Clostridioides difficile, C. difficile, Micromyx Number 3594, Table 1, read-out: MIC
# [16] = Clostridioides difficile, C. difficile, Micromyx Number 3595, Table 1, read-out: MIC
# [17] = Clostridioides difficile, C. difficile, Micromyx Number 4381 (ATCC strain), Table 1, read-out: MIC
# [18] = Ba. fragilis, Gram negative, Table 1
compound,measurement,setting,value
CC(C)C(=O)OCCCCCn1cnc2nc(NCc3ccc(Cl)c(Cl)c3)[nH]c(=O)c21 [Compound 332E],MIC,E. lentum,32 µg/mL
same,MIC,Bi. longum,> 32 µg/mL
same,MIC,"C. difficile; Clostridioides difficile, C. diff., Micromyx Number 3579, Table 2, read-out: MIC",4 µg/mL
same,MIC,"C. difficile; Clostridioides difficile, C. diff., Micromyx Number 3580, Table 2, read-out: MIC",4 µg/mL
same,MIC,"C. difficile; Clostridioides difficile, C. diff., Micromyx Number 3581, Table 2, read-out: MIC",2 µg/mL
same,MIC,"C. difficile; Clostridioides difficile, C. diff., Micromyx Number 3582 (ATCC strain), Table 2, read-out: MIC",4 µg/mL
same,MIC,C. difficile; [1],4 µg/mL
same,MIC,C. difficile; [2],4 µg/mL
same,MIC,C. difficile; [3],4 µg/mL
same,MIC,C. difficile; [4],4 µg/mL
same,MIC,C. difficile; [5],16 µg/mL
same,MIC,C. difficile; [6],2 µg/mL
same,MIC,C. difficile; [7],4 µg/mL
same,MIC,C. difficile; [8],2 µg/mL
same,MIC,C. difficile; [9],4 µg/mL
same,MIC,C. difficile; [10],1 µg/mL
same,MIC,C. difficile; [11],4 µg/mL
same,MIC,C. difficile; [12],4 µg/mL
same,MIC,C. difficile; [13],4 µg/mL
same,MIC,C. difficile; [14],4 µg/mL
same,MIC,C. difficile; [15],4 µg/mL
same,MIC,C. difficile; [16],4 µg/mL
same,MIC,C. difficile; [17],2 µg/mL
same,potency and selectivity against C. diff. versus other Gram-positive anaerobes (in words),"C. difficile; summary of MIC panels, Tables 1 and 3",most potent and selective
same,MIC,L. casei,> 32 µg/mL
same,MIC,Bi. brevi,32 µg/mL
same,MIC,L. acidophilus,8 µg/mL
same,MIC,"Ba. fragilis; B. fragilis, Table 2",> 32 µg/mL
same,MIC,Ba. fragilis; [18],> 32 µg/mL
O=c1[nH]c(NCc2ccc(Cl)c(Cl)c2)nc2ncn(CCN3CCOCC3)c12 [Compound 362E],MIC,"C. difficile; C. diff. Strain no. 18285, Table 4",4 µg/mL
same,MIC,"C. difficile; C. diff. Strain no. 19265, Table 4",2 µg/mL
same,MIC,"C. difficile; C. diff. Strain no. 19273, Table 4",4 µg/mL
same,MIC,"C. difficile; C. diff. Strain no. 19281, Table 4",2 µg/mL
same,MIC,"C. difficile; C. diff. Strain no. 19291, Table 4",2 µg/mL
same,MIC,"C. difficile; C. diff. Strain no. 19369, Table 4",8 µg/mL
same,MIC,"C. difficile; C. diff. Strain no. 19382, Table 4",2 µg/mL
same,MIC,"C. difficile; C. diff. Strain no. 19540, Table 4",2 µg/mL
same,MIC,"C. difficile; C. diff. Strain no. 19580, Table 4",2 µg/mL
same,MIC,"C. difficile; C. diff. Strain no. 19680, Table 4",2 µg/mL
same,MIC,"C. difficile; C. diff. Strain no. 19681, Table 4",2 µg/mL
same,MIC,"C. difficile; C. diff. Strain no. 19683, Table 4",4 µg/mL
same,MIC,"C. difficile; C. diff. Strain no. 19687, Table 4",4 µg/mL
same,MIC,"C. difficile; C. diff. Strain no. 20066, Table 4",4 µg/mL
same,MIC,"C. difficile; C. diff. Strain no. 20152, Table 4",8 µg/mL
same,MIC,"C. difficile; C. diff. Strain no. 20307, Table 4",2 µg/mL
same,MIC,"C. difficile; C. diff. Strain no. 20494, Table 4",2 µg/mL
same,MIC,"C. difficile; C. diff. Strain no. 20680, Table 4",2 µg/mL
same,MIC,"C. difficile; C. diff. Strain no. 20934, Table 4",1 µg/mL
same,MIC,"C. difficile; C. diff. Strain no. 21099, Table 4",2 µg/mL
same,activity against C. diff. strains compared with 359E (in words),C. difficile; summary of Table 4,preferred activity against C. diff. strains
"CCC[C@@H]1C[C@@H](C(=O)N[C@@H]([C@H]2O[C@H](SC)[C@H](O)[C@@H](O)[C@H]2O)[C@H](C)Cl)N(C)C1 [clindamycin, reference compound]",MIC,E. lentum,0.12 µg/mL
same,MIC,Bi. longum,≤ 0.03 µg/mL
same,MIC,C. difficile; [1],4 µg/mL
same,MIC,C. difficile; [2],16 µg/mL
same,MIC,C. difficile; [3],8 µg/mL
same,MIC,C. difficile; [4],> 16 µg/mL
same,MIC,C. difficile; [5],0.5 µg/mL
same,MIC,C. difficile; [6],8 µg/mL
same,MIC,C. difficile; [7],8 µg/mL
same,MIC,C. difficile; [8],8 µg/mL
same,MIC,C. difficile; [9],8 µg/mL
same,MIC,C. difficile; [10],8 µg/mL
same,MIC,C. difficile; [11],> 16 µg/mL
same,MIC,C. difficile; [12],8 µg/mL
same,MIC,C. difficile; [13],8 µg/mL
same,MIC,C. difficile; [14],8 µg/mL
same,MIC,C. difficile; [15],> 16 µg/mL
same,MIC,C. difficile; [16],> 16 µg/mL
same,MIC,C. difficile; [17],4 µg/mL
same,MIC,L. casei,2 µg/mL
same,MIC,Bi. brevi,0.12 µg/mL
same,MIC,L. acidophilus,4 µg/mL
same,MIC,Ba. fragilis; [18],1 µg/mL
